Patent US5416090A, “Method of treating inflammation” (priority 1992, dated 1995)
Read-outs that look alike come from different tables or passages of the source.

Legend:
[1] = system: carrageenan induced paw swelling; experiment: Carrageenan edema model (acute paw inflammation); format: in vivo, rat (Lewis); conditions: Rattus norvegicus, ip; read-out: ED50, inhibition of carrageenan induced paw swelling
[2] = system: substance P induced paw swelling; experiment: Substance P induced acute paw inflammation; format: in vivo, rat (Lewis); conditions: pre-treated with 3 mg/kg
Procedure: In one such model, the acute paw inflammation model, rats were treated with test compounds one hour prior to plantar injection of a 50 μl volume of a phlogistic. Animals were sacrificed and paw weights were determined at a prescribed time interval following the plantar injections. When 1% carrageenan was used as the phlogistic, the time interval between injection and sacrifice was 3 hours. When serotonin (5-hydroxytryptamine (5-HT)) was used, as the phlogistic agent the time interval was one hour. When substance P was used, the time interval was 30 minutes. The acute paw inflammation model is described in more detail in Example 3.
Male Lewis rats (Charles River or Harlan Sprague Dawley) weighing 180 to 250 g were used in all acute inflammatory studies. Animals were maintained on a 12:12 hour light:dark cycle and were allowed ad lib access for food (Purina lab chow) and water. Experimental groups consisted of 5 or 6 rats.
Acute paw swelling was induced by the intraplantar injection of phlogistic agents into the left hind paw, with the uninjected right hind paw serving as the comparative control. […]

[3] = system: delayed type hypersensitivity (picryl chloride induced foot pad swelling); experiment: Murine delayed type hypersensitivity (DTH) response, picryl chloride; format: in vivo, mouse (Balb/c)
Procedure: The activity of ergoline compounds was also evaluated in a murine delayed-type hypersensitivity (DTH) assay. The DTH assay was performed in substantial accordance with the method set forth in Example 1. Briefly, mice were sensitized by topical administration of picryl chloride on day 1 of the assay. On day 4 paw size was determined and recorded and the paw was then challenged with picryl chloride. The challenged paw was remeasured on day 5 to quantitate the DTH response via the increase in paw size.
Male Balb/c mice (Charles River) weighing 20 to 25 g were used in all DTH studies. When adrenalectomized studies were carried out, sham surgery and adrenalectomized mice were obtained from the vendor. Animals were maintained on a 12:12 hour light:dark cycle. Mice were allowed ad lib access for food (Purina lab chow) and water (normal saline for adrenalectomized animals).
A DTH response was assessed by measuring the degree of rear foot pad swelling induced by picryl chloride. On day 0, mice were sensitized with 100 μl of 5% picryl chloride (in ethanol), which was applied to a shaved abdomen. Negative control groups were shaved but not sensitized. On day 3, mice were anesthetized with methoxyflurane, and the baseline rear foot pad thickness was measured with a micrometer (Mitutoyo) in μ, and was recorded in duplicate. Fifty μl of picryl chloride was then applied to each pad with a pipet (Rainen) while the animal was unconscious. The negative controls also received picryl chloride at this point to control for primary irritancy. Twenty-four hours later, the mice were sacrificed by CO2 asphyxiation and each rear foot pad was again measured in duplicate, and any evidence of foot pad swelling was calculated. The mean rear foot swelling change of both pads for each animal from days 3 to 4 was used as the index of immune function in the DTH assay.
Unless otherwise stated all animals were given four subcutaneous doses of test compound just prior to picryl chloride sensitization on day 0, on day 1 and day 2, and just prior to picryl chloride challenge on day 3. In a few experiments, compounds were administered via oral or intraperitoneal routes. All drugs were delivered as suspensions in 1% carboxy-methylcellulose (also contained 0.8% NaCl, 1% polysorbate-80, 1.4% benzyl alcohol). Carboxymethyl-cellulose (1%) was used in control injections.

serum prolactin [4] = experiment: Serum prolactin levels in rats; format: in vivo, rat (Lewis); conditions: FIG. 11, 0.3, 3 and 30 mg/kg, 1 hour post-treatment
Procedure: (§1) A further mechanistic study wherein rat serum prolactin levels were quantitated 1 hour post-treatment with varying doses of D-1-isopropyl-6-n-propyl-8β-methylthiomethyl ergoline is summarized in FIG. 11. […] A time course/dose response study of D-1-isopropyl-6-n-propyl-8β-methylthio-methyl ergoline effects on murine serum prolactin levels is presented in FIG. 12. […] There is however a disparity between the suppression of prolactin and anti-inflammatory activities of the ergolines with regard to the dose response profiles. Serum prolactin levels are much more sensitive to D-1-isopropyl-6-n-propyl-8β-methylthiomethyl ergoline (maximal suppression ~≤0.1 mg/kg) than are the anti-inflammatory effects 3-10 mg/kg, See FIG. 5).
(§2) Both Balb/C mice (male, approximately 20 g, Charles Rivers) and Lewis rats (male, approximately 200 g, Charles River or Harlan Sprague Dawley) were used in neuroendocrine studies. Animals were maintained on a 12:12 hour light:dark cycle and were allowed ad lib access for food (Purina lab chow) and water. Experimental groups consisted of 6 to 8 animals.
(§3) After dosing with test compounds, animals were sacrificed by decapitation at 1, 3, 8 or 24 hour intervals. […] Serum prolactin was determined by radioimmunoassay. Serum corticosterone levels were determined with a kit designed for such determinations and obtained from ICN.

serum prolactin [5] = experiment: Serum prolactin levels in mice, time course; format: in vivo, mouse (Balb/C)
Procedure: as §1, §2, §3

[6] = system: graft versus host response (splenomegaly); format: in vivo, mouse (B6C3F1); conditions: FIG. 13, 10 daily doses
[7] = listed as D-1-isopropyl-6-n-propyl-8β-methylthiomethyl ergoline

Structure (SMILES): CCCN1C[C@H](CSC)C[C@@H]2c3cccc4c3c(cn4C(C)C)C[C@H]21 [Compound 1, D-1-isopropyl-6-n-propyl-8β-methylthiomethyl ergoline]
- ED50 [1]: ~0.3 mg/kg
- increase in paw weight after substance P ([2]; Substance P 0.01 mg/ml, untreated 174 ±18 mg): 38 ± 11 mg
- reduction of substance P induced increase in paw weight ([2]; p<0.05): 49%
- reduction of paw swelling in DTH ([3]; FIG. 4 Panel A): efficacy
- reduction of DTH paw swelling, 4 day vs two day treatment ([3]; FIG. 4 Panel A, 4 days vs two day treatment schedule): superior efficacy
- dose for anti-inflammatory effects ([3]; FIG. 5): 3 to 10 mg/kg
- serum prolactin levels (serum prolactin [4]; [7]): dramatically reduced serum prolactin levels
- serum prolactin levels (serum prolactin [4]; listed as compound 1): Suppression of serum prolactin levels
- duration of effect on serum prolactin (serum prolactin [5]; FIG. 12, single injection): particularly long lasting effects
- ED (maximal) (serum prolactin [5]; Mus musculus, compared with anti-inflammatory doses, read-out: dose for maximal suppression of serum prolactin): ≤ 0.1 mg/kg
- immunosuppressive activity / effect on GVH splenomegaly ([6]; listed as D-1-isopropyl-6-n-propyl-8β-methyl-thiomethyl ergoline): unaffected
- immunosuppressive activity / effect on GVH splenomegaly [6, 7]: no immunosuppressive activity
- immunosuppressive activity / effect on GVH splenomegaly ([6]; listed as compound 1): Lack of effect
